Assays:
Assay type in all cases: biochemical
panel of kinases = target: T1, panel of kinases (Homo sapiens, UniProt P51813); test: Inhibition of a panel of kinases (in vitro HotSpot kinase assay, 33P-ATP, 1 μM ATP), other kinases; settings: BMX wild-type, read-out: BMX-WT IC50
T1 sequence (P51813 1-675): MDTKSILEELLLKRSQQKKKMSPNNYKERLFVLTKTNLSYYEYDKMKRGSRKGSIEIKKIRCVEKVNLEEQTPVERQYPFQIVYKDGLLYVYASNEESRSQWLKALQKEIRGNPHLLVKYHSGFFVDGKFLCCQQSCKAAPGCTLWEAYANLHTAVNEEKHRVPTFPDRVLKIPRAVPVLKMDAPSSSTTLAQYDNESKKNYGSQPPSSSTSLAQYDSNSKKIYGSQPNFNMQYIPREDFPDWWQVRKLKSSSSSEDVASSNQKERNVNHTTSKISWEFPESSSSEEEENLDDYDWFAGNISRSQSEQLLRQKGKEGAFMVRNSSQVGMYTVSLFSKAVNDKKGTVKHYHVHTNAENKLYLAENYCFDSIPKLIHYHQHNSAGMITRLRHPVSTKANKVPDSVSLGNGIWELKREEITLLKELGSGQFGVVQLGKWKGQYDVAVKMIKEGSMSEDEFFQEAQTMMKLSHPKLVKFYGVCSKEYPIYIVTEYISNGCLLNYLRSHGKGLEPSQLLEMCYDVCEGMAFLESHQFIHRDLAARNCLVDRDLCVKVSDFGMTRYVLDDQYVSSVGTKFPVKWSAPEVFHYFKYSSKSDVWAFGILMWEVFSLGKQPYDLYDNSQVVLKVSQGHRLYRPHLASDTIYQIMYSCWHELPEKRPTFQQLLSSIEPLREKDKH
Protocol: Example 63: Inhibition of a Panel of Kinases The degree of inhibition of a panel of kinases is determined using the in vitro HotSpot kinase assay (purified enzymes, ^33P-ATP, an appropriate substrate and 1 μM ATP).

TEC = target: T2, TEC (Homo sapiens, UniProt P42680); test: Inhibition of a panel of kinases (in vitro HotSpot kinase assay, 33P-ATP, 1 μM ATP); settings: for IC50: HotSpot kinase assay, 1 μM ATP; for TEC/Btk: ratio of TEC IC50 to Btk IC50 (selectivity)
T2 sequence (P42680 1-631): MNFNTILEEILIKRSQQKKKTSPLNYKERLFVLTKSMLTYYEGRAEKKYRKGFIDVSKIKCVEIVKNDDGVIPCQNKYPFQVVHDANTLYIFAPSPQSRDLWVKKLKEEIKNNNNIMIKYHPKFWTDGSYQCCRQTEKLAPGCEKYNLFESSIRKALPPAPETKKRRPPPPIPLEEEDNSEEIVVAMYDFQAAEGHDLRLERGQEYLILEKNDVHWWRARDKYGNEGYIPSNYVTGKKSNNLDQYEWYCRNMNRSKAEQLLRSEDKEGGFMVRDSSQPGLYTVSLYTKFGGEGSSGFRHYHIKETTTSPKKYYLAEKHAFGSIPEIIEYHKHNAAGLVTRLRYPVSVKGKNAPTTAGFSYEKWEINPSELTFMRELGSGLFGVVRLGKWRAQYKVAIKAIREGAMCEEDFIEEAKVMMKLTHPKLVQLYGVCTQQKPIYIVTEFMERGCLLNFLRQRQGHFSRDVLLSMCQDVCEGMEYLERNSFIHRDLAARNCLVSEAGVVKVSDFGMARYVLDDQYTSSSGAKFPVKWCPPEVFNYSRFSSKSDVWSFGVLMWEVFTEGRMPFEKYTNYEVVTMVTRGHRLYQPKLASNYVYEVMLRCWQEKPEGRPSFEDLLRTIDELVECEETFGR
How it was run: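 At 1 μM ATP spiked with 33P-ATP, substrate phosphorylation by the purified enzymes gives the extent of inhibition.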

Btk = target: T3, Btk (Homo sapiens, UniProt Q06187); test: Btk in vitro inhibitory activity (one of Method A TR-FRET, Method B electrophoretic mobility shift, Method C radiometric filter binding); settings: wild-type Btk; read-out: Btk-WT IC50
T3 construct: purified from insect cells as a full-length construct containing a N-terminal 6X-His tag; His6 (N); made in house; host or cells: insect cells (Method C)
T3 sequence (Q06187 whole entry): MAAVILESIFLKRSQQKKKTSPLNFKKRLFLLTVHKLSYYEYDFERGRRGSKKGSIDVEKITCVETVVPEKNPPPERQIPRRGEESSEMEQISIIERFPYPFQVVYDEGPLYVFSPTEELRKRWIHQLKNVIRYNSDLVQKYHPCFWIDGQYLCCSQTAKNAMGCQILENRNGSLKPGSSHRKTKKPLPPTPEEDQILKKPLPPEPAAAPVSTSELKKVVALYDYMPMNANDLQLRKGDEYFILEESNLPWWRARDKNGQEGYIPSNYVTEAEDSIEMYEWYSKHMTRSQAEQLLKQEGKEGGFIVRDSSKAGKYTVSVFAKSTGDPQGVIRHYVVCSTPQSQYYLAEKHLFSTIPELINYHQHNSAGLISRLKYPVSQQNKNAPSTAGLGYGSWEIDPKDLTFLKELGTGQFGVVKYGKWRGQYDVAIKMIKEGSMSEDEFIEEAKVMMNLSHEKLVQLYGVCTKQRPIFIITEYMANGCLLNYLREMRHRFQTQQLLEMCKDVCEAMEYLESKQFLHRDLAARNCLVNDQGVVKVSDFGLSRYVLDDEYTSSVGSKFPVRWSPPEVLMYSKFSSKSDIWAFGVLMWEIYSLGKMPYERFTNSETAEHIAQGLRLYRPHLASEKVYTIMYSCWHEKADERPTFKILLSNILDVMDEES
How it was run: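 Three alternative formats were used. A radiometric filter-binding read used 8 nM full-length His-BTK with 0.2 mg/mL poly(Glu-Tyr) 4:1 (C); microfluidic separation of 1 μM FAM-peptide by 1 nM BTK gave IC50 from 12-point curves (B); TR-FRET at Km ATP, 0.5 nM Btk, gave Ki(app)-derived IC50 (A).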

Row | SMILES | IC50 (panel of kinases) | IC50 (TEC) | TEC/Btk (TEC) | IC50 (Btk)
1 | CC(C)(C)c1nc(C(=O)NC2(c3ccc(-c4ccnc5[nH]nc(N[C@@H]6CCNC6)c45)cc3)CC2)no1 [Compound 1, 5-tert-butyl-N-{1-[4-(3-{[(3R)-pyrrolidin-3-yl]amino}-1H-pyrazolo[3,4-b]pyridin-4-yl)phenyl]cyclopropyl}-1,2,4-oxadiazole-3-carboxamide] | > 10000 nM | > 10000 nM | >100 | 57.7 nM
2 | CC(C)(C)c1nc(C(=O)NCc2ccc(-c3ccnc4[nH]nc(N[C@@H]5CCNC5)c34)cc2F)no1 [Compound 2, (R)-5-(tert-butyl)-N-(2-fluoro-4-(3-(pyrrolidin-3-ylamino)-1H-pyrazolo[3,4-b]pyridin-4-yl)benzyl)-1,2,4-oxadiazole-3-carboxamide] | 1980 nM | 950 nM | 82 | 11.6 nM
3 | C=CC(=O)N1CC[C@@H](Nc2n[nH]c3nccc(-c4ccc(CNC(=O)c5noc(C(C)(C)C)n5)c(F)c4)c23)C1 [Compound 3, (R)—N-(4-(3-((1-acryloylpyrrolidin-3-yl)amino)-1H-pyrazolo[3,4-b]pyridin-4-yl)-2-fluorobenzyl)-5-(tert-butyl)-1,2,4-oxadiazole-3-carboxamide] | 39 nM | 20 nM | 98 | 0.205 nM
4 | C=CC(=O)N1CC[C@@H](Nc2n[nH]c3nccc(-c4ccc(C5(NC(=O)c6noc(C(C)(C)C)n6)CC5)cc4)c23)C1 [Compound 4, (R)—N-(1-(4-(3-((1-acryloylpyrrolidin-3-yl)amino)-1H-pyrazolo[3,4-b]pyridin-4-yl)phenyl)cyclopropyl)-5-(tert-butyl)-1,2,4-oxadiazole-3-carboxamide] | 132 nM | 103 nM | 184 | 0.559 nM
5 | CCC(=O)N1CC[C@@H](Nc2n[nH]c3nccc(-c4ccc(C5(NC(=O)c6noc(C(C)(C)C)n6)CC5)cc4)c23)C1 [Compound 5, (R)-5-(tert-butyl)-N-(1-(4-(3-((1-propionylpyrrolidin-3-yl)amino)-1H-pyrazolo[3,4-b]pyridin-4-yl)phenyl)cyclopropyl)-1,2,4-oxadiazole-3-carboxamide] | 4350 nM | 2590 nM | 49 | 52.7 nM
6 | C=CC(=O)N1CC[C@@H](Nc2n[nH]c3nccc(-c4ccc(CNC(=O)c5ccc(C(C)(C)C)cc5)c(F)c4)c23)C1 [Compound 6, 4-tert-butyl-N-{[2-fluoro-4-(3-{[(3R)-1-(prop-2-enoyl)pyrrolidin-3-yl]amino}-1H-pyrazolo[3,4-b]pyridin-4-yl)phenyl]methyl}benzamide] | 182 nM | 130 nM | 210 | 0.62 nM
7 | CC#CC(=O)N1CC[C@@H](Nc2n[nH]c3nccc(-c4ccc(CNC(=O)c5ccc(C(C)(C)C)cc5)c(F)c4)c23)C1 [Compound 7, N-{[4-(3-{[(3R)-1-(but-2-ynoyl)pyrrolidin-3-yl]amino}-1H-pyrazolo[3,4-b]pyridin-4-yl)-2-fluorophenyl]methyl}-4-tert-butylbenzamide] | 274 nM | 296 nM | 179 | 1.65 nM
8 | CC(C)(C)c1ccc(C(=O)NCc2ccc(-c3ccnc4[nH]nc(N[C@@H]5CCNC5)c34)cc2F)cc1 [Compound 8, 4-tert-butyl-N-{[2-fluoro-4-(3-{[(3R)-pyrrolidin-3-yl]amino}-1H-pyrazolo[3,4-b]pyridin-4-yl)phenyl]methyl}benzamide] | > 10000 nM | > 10000 nM | – | 144 nM
9 | C=CC(=O)N1CC[C@@H](Nc2n[nH]c3nccc(-c4cccc(NC(=O)c5ccc(C(C)(C)C)cc5)c4C)c23)C1 [Compound 9, 4-tert-butyl-N-[2-methyl-3-(3-{[(3R)-1-(prop-2-enoyl)pyrrolidin-3-yl]amino}-1H-pyrazolo[3,4-b]pyridin-4-yl)phenyl]benzamide] | 1910 nM | 2460 nM | 680 | 3.62 nM
10 | CC#CC(=O)N1CC[C@@H](Nc2n[nH]c3nccc(-c4cccc(NC(=O)c5ccc(C(C)(C)C)cc5)c4C)c23)C1 [Compound 10, N-[3-(3-{[(3R)-1-(but-2-ynoyl)pyrrolidin-3-yl]amino}-1H-pyrazolo[3,4-b]pyridin-4-yl)-2-methylphenyl]-4-tert-butylbenzamide] | > 10000 nM | 8350 nM | 637 | 13.1 nM
11 | C=CC(=O)N1CC[C@@H](Nc2n[nH]c3nccc(-c4cccc(-n5ccc6cc(C7CC7)cc(F)c6c5=O)c4COC(C)=O)c23)C1 [Compound 16, [2-(6-cyclopropyl-8-fluoro-1-oxo-1,2-dihydroisoquinolin-2-yl)-6-(3-{[(3R)-1-(prop-2-enoyl)pyrrolidin-3-yl]amino}-1H-pyrazolo[3,4-b]pyridin-4-yl)phenyl]methyl acetate] | 4050 nM | 3990 nM | – | > 10000 nM
12 | O=C(NCc1ccc(-c2ccnc3[nH]nc(NC4CCNC4)c23)cc1F)c1ccc2c(c1)OCCCO2 (stereo not drawn) [Example 350, N-[(2-fluoro-4-{3-[(pyrrolidin-3-yl)amino]-1H-pyrazolo[3,4-b]pyridin-4-yl}phenyl)methyl]-3,4-dihydro-2H-1,5-benzodioxepine-7-carboxamide] | 7000 nM | – | – | 719 nM
13 | O=C(NCc1ccc(-c2ccnc3[nH]nc(N[C@@H]4CCNC4)c23)cc1F)c1ccc2scnc2c1 [Example 352, (R)-N-[(2-fluoro-4-{3-[(pyrrolidin-3-yl)amino]-1H-pyrazolo[3,4-b]pyridin-4-yl}phenyl)methyl]-1,3-benzothiazole-5-carboxamide] | 1530 nM | – | – | 108 nM
14 | CC(=O)N[C@@H]1CCN(c2n[nH]c3nccc(-c4ccc([C@@H](C)NC(=O)c5cc(C(C)(C)O)on5)cc4)c23)C1 [Example 363, N-[(1R)-1-(4-{3-[(3R)-3-acetamidopyrrolidin-1-yl]-1H-pyrazolo[3,4-b]pyridin-4-yl}phenyl)ethyl]-5-(2-hydroxypropan-2-yl)-1,2-oxazole-3-carboxamide] | 5500 nM | – | – | 48.3 nM
15 | C[C@@H](NC(=O)c1nc(C(C)(C)C)no1)c1ccc(-c2ccnc3[nH]nc(NC4CCN(S(C)(=O)=O)C4)c23)cc1 (stereo partly drawn) [Example 386, 3-tert-butyl-N-{(1R)-1-[4-(3-{[1-(methanesulfonyl)pyrrolidin-3-yl]amino}-1H-pyrazolo[3,4-b]pyridin-4-yl)phenyl]ethyl}-1,2,4-oxadiazole-5-carboxamide] | 6920 nM | – | – | 10.5 nM
16 | C[C@@H](NC(=O)c1nc(C(C)(C)C)no1)c1ccc(-c2ccnc3[nH]nc(NC4CCN(S(C)(=O)=O)CC4)c23)cc1 [Example 387, 3-tert-butyl-N-{(1R)-1-[4-(3-{[1-(methanesulfonyl)piperidin-4-yl]amino}-1H-pyrazolo[3,4-b]pyridin-4-yl)phenyl]ethyl}-1,2,4-oxadiazole-5-carboxamide] | 7210 nM | – | – | 27.3 nM
17 | C[C@@H](NC(=O)c1cc(C(C)(C)O)on1)c1ccc(-c2ccnc3[nH]nc(NC4CCOC4)c23)cc1 (stereo partly drawn) [Example 398, 5-(2-hydroxypropan-2-yl)-N-[(1R)-1-(4-{3-[(oxolan-3-yl)amino]-1H-pyrazolo[3,4-b]pyridin-4-yl}phenyl)ethyl]-1,2-oxazole-3-carboxamide] | 5730 nM | – | – | 625 nM
